{"source": "paper PMC12043042", "about": "“Pseudo‐Ring Methodology to Control the Conformations of Macrocyclic Peptides” (Chemistry (Weinheim an Der Bergstrasse, Germany), 2025)", "format_in_all_cases": "physicochemical", "key": {"[1]": {"experiment": "Solubility in DMSO / organic solvents, determined visually", "conditions": "room temperature, concentration of 10 mg/mL (ca. 10 mg/mL for NMR)", "source_text": "We considered building blocks 1–3 as Fmoc‐protected pseudo‐ring building blocks that could be implemented into the Fmoc SPPS approach. The building block 1 was readily prepared from 3‐methyl SA (see Supporting Information). […] The building block 3 was made from commercially available 7‐carboxyindole over seven steps. This procedure was scalable and required no chromatographic purifications (see Supporting Information). With 1 and 3 in hand, we turned our attention towards their application in SPPS. […] Through cyclization of the linear pentafluorophenol (PFP) ester at high dilution in DMF with DIPEA, cyclic peptides 4 (25% overall yield) and 5 (28% overall yield) were obtained from building block 1. The cyclic peptides 6 (17% overall yield) and 7 (21% overall yield) were prepared from building block 3 (Figure 3a,b). At the same time, we synthesized cyclic peptide controls devoid of the pseudo‐ring core through a conventional Fmoc SPPS strategy (Figure 3c) with a Gly‐Gly in place of the pseudo‐ring scaffold. Similarly, we prepared peptides 10 and 11, which represent depeptidized homodetic sequences that contain a backbone‐embedded arene that lacks the X─H pseudo‐ring hydrogen bond donor (Figure 3c). To draw further comparison between pseudo‐ring‐containing and regular heterocycle‐containing peptides, we attempted to synthesize the indole‐containing analogues of peptides 6 and 7 (see Supporting Information). […] During the preparation of cyclic peptides 4–11, we noticed that macrocycles devoid of a pseudo‐ring were frustratingly insoluble in all organic solvents as well as in water. As result, these peptides (8–11) were purified by hot trituration in methanol/water. The solubilities/lipophilicities of peptides 4–11 will be discussed later in this paper. […]\nReversed‐phase HPLC retention times have proven to be a useful metric in determining the permeability of peptide macrocycles, as longer retention times typically equate to lower aqueous solubility, lower polarity, and increased lipophilicity.^[ [34], [35], [36], [37] ^] We were keen to use these HPLC retention times as a tool to assess the modulation of lipophilicity of the pseudo‐ring‐containing macrocycles. At the same time, we were interested in collecting solubility measurements for each macrocycle in both organic solvents (DMSO) as well as in water by visually determining each macrocycle's solubility. Our analysis began with the proteinogenic peptides 8 and 9 (Figure 6a). From the NMR studies, we recognized that these peptides had extremely poor solubility in d6 ‐DMSO (Figure 6c). […] HPLC analysis of these peptides confirmed that proteinogenic sequences correspond to extremely polar peptides. On a 15‐min HPLC gradient (from 5% MeCN/H2O to 95% MeCN/H2O with 0.1% formic acid), macrocycles 8 and 9 had HPLC retention times of 5.3 min and 4.8 min, respectively. Both 8 and 9 contain similar hydrogen bonding patterns, which is reflected in their similar hydrophilicities and HPLC retention times. Similar results were obtained with peptides 10 and 11 (Figure 6a). […] We were keen to decipher whether the inclusion of either “open” or “closed” pseudo‐ring residues could lead to noticeable solubility and lipophilicity differences. […] This increase in […] likely results from the now exposed polar phenolic OH group paired with the disrupted IMHB networks that were present within the backbone of 4. […] With this in mind, we began analyzing our dicarbonyl‐containing macrocycles 6 and 7. […] Similarly, this marks the first instance in which we have been able to access a class of macrocycles with chameleonic behavior whereby we can reliably access both “open” and “closed” forms using pseudo‐rings. […] Unique to this series of macrocycles, the “open” pseudo‐ring macrocycle 7 is extremely hydrophilic."}, "[2]": {"experiment": "Reversed-phase HPLC retention time as measure of lipophilicity", "conditions": "15-min gradient from 5% MeCN/H2O to 95% MeCN/H2O with 0.1% formic acid, longer time = more lipophilic", "source_text": "Reversed‐phase HPLC retention times have proven to be a useful metric in determining the permeability of peptide macrocycles, as longer retention times typically equate to lower aqueous solubility, lower polarity, and increased lipophilicity.^[ [34], [35], [36], [37] ^] We were keen to use these HPLC retention times as a tool to assess the modulation of lipophilicity of the pseudo‐ring‐containing macrocycles. At the same time, we were interested in collecting solubility measurements for each macrocycle in both organic solvents (DMSO) as well as in water by visually determining each macrocycle's solubility. Our analysis began with the proteinogenic peptides 8 and 9 (Figure 6a). From the NMR studies, we recognized that these peptides had extremely poor solubility in d6 ‐DMSO (Figure 6c). […] HPLC analysis of these peptides confirmed that proteinogenic sequences correspond to extremely polar peptides. On a 15‐min HPLC gradient (from 5% MeCN/H2O to 95% MeCN/H2O with 0.1% formic acid), macrocycles 8 and 9 had HPLC retention times of 5.3 min and 4.8 min, respectively. Both 8 and 9 contain similar hydrogen bonding patterns, which is reflected in their similar hydrophilicities and HPLC retention times. Similar results were obtained with peptides 10 and 11 (Figure 6a). […]"}, "[3]": {"experiment": "Solubility in water, determined visually", "conditions": "concentration of 10 mg/mL", "source_text": "We considered building blocks 1–3 as Fmoc‐protected pseudo‐ring building blocks that could be implemented into the Fmoc SPPS approach. The building block 1 was readily prepared from 3‐methyl SA (see Supporting Information). […] The building block 3 was made from commercially available 7‐carboxyindole over seven steps. This procedure was scalable and required no chromatographic purifications (see Supporting Information). With 1 and 3 in hand, we turned our attention towards their application in SPPS. […] Through cyclization of the linear pentafluorophenol (PFP) ester at high dilution in DMF with DIPEA, cyclic peptides 4 (25% overall yield) and 5 (28% overall yield) were obtained from building block 1. The cyclic peptides 6 (17% overall yield) and 7 (21% overall yield) were prepared from building block 3 (Figure 3a,b). At the same time, we synthesized cyclic peptide controls devoid of the pseudo‐ring core through a conventional Fmoc SPPS strategy (Figure 3c) with a Gly‐Gly in place of the pseudo‐ring scaffold. Similarly, we prepared peptides 10 and 11, which represent depeptidized homodetic sequences that contain a backbone‐embedded arene that lacks the X─H pseudo‐ring hydrogen bond donor (Figure 3c). […]"}}, "note": "“Also recorded” adds a separate entry of the source. Where a SMILES comes first, the peptide text is derived from it."}
{"smiles": "CC[C@H](C)[C@@H]1NC(=O)c2cccc(c2O)CNC(=O)[C@H](Cc2ccccc2)NC(=O)CNC(=O)[C@H](C)NC1=O", "note": "[compound 4] (HELM PEPTIDE1{A.G.F.[O=C(c1cccc(CN[*:1])c1O)[*:2]].I}$PEPTIDE1,PEPTIDE1,1:R1-5:R2$$$V2.0)", "values": [{"measurement": "Solubility in DMSO (d6-DMSO)", "setting": "[1]", "result": "readily soluble; also recorded: much more soluble in DMSO than their non‐pseudo‐ring counterparts"}, {"measurement": "HPLC retention time", "setting": "[2]", "result": 7.7, "unit": "min"}]}
{"smiles": "C[C@@H]1NC(=O)[C@@H]2CCCN2C(=O)c2cccc(c2O)CNC(=O)[C@H](Cc2ccccc2)NC(=O)CNC1=O", "note": "[compound 5] (HELM PEPTIDE1{A.G.F.[O=C(c1cccc(CN[*:1])c1O)[*:2]].P}$PEPTIDE1,PEPTIDE1,1:R1-5:R2$$$V2.0)", "values": [{"measurement": "Solubility in DMSO (d6-DMSO)", "setting": "[1]", "result": "readily soluble; also recorded: much more soluble in DMSO than their non‐pseudo‐ring counterparts"}]}
{"smiles": "CC[C@H](C)[C@@H]1NC(=O)c2cccc(c2N)C(=O)CNC(=O)[C@H](Cc2ccccc2)NC(=O)CNC(=O)[C@H](C)NC1=O", "note": "[compound 6] (HELM PEPTIDE1{A.G.F.[Nc1c(C(=O)CN[*:1])cccc1C(=O)[*:2]].I}$PEPTIDE1,PEPTIDE1,1:R1-5:R2$$$V2.0)", "values": [{"measurement": "Solubility in DMSO (d6-DMSO)", "setting": "[1]", "result": "highly soluble"}]}
{"smiles": "C[C@@H]1NC(=O)[C@@H]2CCCN2C(=O)c2cccc(c2N)C(=O)CNC(=O)[C@H](Cc2ccccc2)NC(=O)CNC1=O", "note": "[compound 7] (HELM PEPTIDE1{A.G.F.[Nc1c(C(=O)CN[*:1])cccc1C(=O)[*:2]].P}$PEPTIDE1,PEPTIDE1,1:R1-5:R2$$$V2.0)", "values": [{"measurement": "Solubility in DMSO (d6-DMSO)", "setting": "[1]", "result": "highly soluble"}, {"measurement": "Solubility in H2O", "setting": "[3]", "result": "highly soluble"}]}
{"smiles": "CC[C@H](C)[C@@H]1NC(=O)CNC(=O)CNC(=O)[C@H](Cc2ccccc2)NC(=O)CNC(=O)[C@H](C)NC1=O", "note": "[compound 8] (HELM PEPTIDE1{A.G.F.G.G.I}$PEPTIDE1,PEPTIDE1,1:R1-6:R2$$$V2.0)", "values": [{"measurement": "Solubility in DMSO (d6-DMSO)", "setting": "[1]", "result": "could not be fully solubilized"}, {"measurement": "HPLC retention time", "setting": "[2]", "result": 5.3, "unit": "min"}]}
{"smiles": "C[C@@H]1NC(=O)[C@@H]2CCCN2C(=O)CNC(=O)CNC(=O)[C@H](Cc2ccccc2)NC(=O)CNC1=O", "note": "[compound 9] (HELM PEPTIDE1{A.G.F.G.G.P}$PEPTIDE1,PEPTIDE1,1:R1-6:R2$$$V2.0)", "values": [{"measurement": "Solubility in DMSO (d6-DMSO)", "setting": "[1]", "result": "could not be fully solubilized"}]}
{"smiles": "CC[C@H](C)[C@@H]1NC(=O)c2cccc(c2)CNC(=O)[C@H](Cc2ccccc2)NC(=O)CNC(=O)[C@H](C)NC1=O", "note": "[compound 10] (HELM PEPTIDE1{[O=C(c1cccc(CN[*:1])c1)[*:2]].I.A.G.F}$PEPTIDE1,PEPTIDE1,1:R1-5:R2$$$V2.0)", "values": [{"measurement": "Solubility in DMSO (d6-DMSO)", "setting": "[1]", "result": "poorly soluble"}]}
{"smiles": "C[C@@H]1NC(=O)[C@@H]2CCCN2C(=O)c2cccc(c2)CNC(=O)[C@H](Cc2ccccc2)NC(=O)CNC1=O", "note": "[compound 11] (HELM PEPTIDE1{[O=C(c1cccc(CN[*:1])c1)[*:2]].P.A.G.F}$PEPTIDE1,PEPTIDE1,1:R1-5:R2$$$V2.0)", "values": [{"measurement": "Solubility in DMSO (d6-DMSO)", "setting": "[1]", "result": "could be solubilized in d6 ‐DMSO at room temperature only after sonication"}]}
